# Measurements reported in ChEMBL document CHEMBL1201862, “PubChem BioAssay data set” (2004).
#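 Exposure lasted 48 hours, with cells grown in 96-well plates and compounds tested at five concentrations. GI50: concentration for 50% inhibition of growth.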 The source made the active and inactive calls. Rule as the data show it: active = GI50 up to about 1.1 µM and inactive = higher.
# How the values were obtained:
# Assay in all cases: inhibition of tumour cell growth, NCI panel, 48 h
# [1] = test system: A549
# [2] = test system: CCRF-CEM
# [3] = test system: COLO 205
# [4] = test system: DMS-273
# [5] = test system: HCT-116
# [6] = test system: HL-60
# [7] = test system: HOP-62
# [8] = test system: HT-29
# [9] = test system: KM-20L2
# [10] = test system: KM12
# [11] = test system: LOX IMVI
# [12] = test system: M19-MEL
# [13] = test system: OVCAR-3
# [14] = test system: SK-MEL-5
# [15] = test system: SK-OV-3
# [16] = test system: SNB-19
# [17] = test system: SW-620
# [18] = test system: UO-31
# [19] = test system: XF498
# [20] = test system: OVCAR-8
SMILES,GI50 [1],GI50 [2],GI50 [3],GI50 [4],GI50 [5],GI50 [6],GI50 [7],GI50 [8],GI50 [9],GI50 [10],GI50 [11],GI50 [12],GI50 [13],GI50 [14],GI50 [15],GI50 [16],GI50 [17],GI50 [18],GI50 [19],GI50 [20]
Oc1cc2cc(O)nc(O)c2c(O)n1,> 100 µM (inactive),> 100 µM (inactive),> 100 µM (inactive),> 100 µM (inactive),> 100 µM (inactive),> 100 µM (inactive),> 100 µM (inactive),> 100 µM (inactive),> 100 µM (inactive),> 100 µM (inactive),> 100 µM (inactive),> 100 µM (inactive),> 100 µM (inactive),> 100 µM (inactive),> 100 µM (inactive),> 100 µM (inactive),> 100 µM (inactive),> 100 µM (inactive),> 100 µM (inactive),–
COC1=C(C)C(=O)C2=C(C1=O)[C@@H]1[C@@H]3Cc4c(OC(=O)CO)c(C)c(OC)c(O)c4[C@H](CNC(=O)C(C)=O)N3[C@@H](C#N)[C@H](C2)N1C,0.366 µM (active),0.0271 µM (active),< 0.0155 µM (active),0.0189 µM (active),0.0573 µM (active),< 0.0135 µM (active),0.221 µM (active),0.0182 µM (active),0.0466 µM (active),0.108 µM (active),< 0.01 µM (active),< 0.0171 µM (active),< 0.0153 µM (active),0.0154 µM (active),0.415 µM (active),0.0414 µM (active),< 0.0164 µM (active),0.0738 µM (active),< 0.01 µM (active),0.024 µM (active)
COc1c2c(c3ccccc3c1O)C1C=CC2C1 (stereo not drawn),19.2 µM (inactive),4.72 µM (inactive),16.1 µM (inactive),15.7 µM (inactive),4 µM (inactive),> 10 µM (inactive),16.1 µM (inactive),19.7 µM (inactive),22.3 µM (inactive),17.6 µM (inactive),4.48 µM (inactive),2.32 µM (inactive),14.5 µM (inactive),5.77 µM (inactive),> 10 µM (inactive),> 10 µM (inactive),14.2 µM (inactive),5.35 µM (inactive),14.7 µM (inactive),13.7 µM (inactive)
CC1[C@@]2(O[C@@H]3C=C4C5CCC6Cc7nc8c(nc7C[C@@]6(C)C5C[C@H](O)[C@@]4(C)[C@]13O)CC1CCc3c(cc4c5c3C(O)C[C@H]5[C@@H](C)C3(O4)OC(C)(C)CC3O)[C@]1(C)C8)O[C@@](C)(CO)C[C@@H]2O (stereo partly drawn),0.167 µM (active),0.164 µM (active),0.57 µM (active),0.0504 µM (active),0.558 µM (active),0.191 µM (active),0.102 µM (active),0.402 µM (active),0.37 µM (active),1.29 µM (inactive),0.23 µM (active),2.28 µM (inactive),1.32 µM (inactive),0.303 µM (active),0.187 µM (active),1.38 µM (inactive),0.49 µM (active),1.39 µM (inactive),0.0162 µM (active),3.24 µM (inactive)
C#CCNC(=O)CCC(N)C(=O)O (stereo not drawn),> 100 µM (inactive),> 100 µM (inactive),> 100 µM (inactive),> 100 µM (inactive),> 100 µM (inactive),> 100 µM (inactive),> 100 µM (inactive),> 100 µM (inactive),> 100 µM (inactive),> 100 µM (inactive),> 100 µM (inactive),> 100 µM (inactive),> 100 µM (inactive),> 100 µM (inactive),> 100 µM (inactive),> 100 µM (inactive),> 100 µM (inactive),> 100 µM (inactive),> 100 µM (inactive),> 100 µM (inactive)
C[C@H](N)C(=O)N[C@@H]1[C@H]2C(=C(O)C[C@@H](O)[C@@H]2O)C(=O)O[C@@H]1C,> 100 µM (inactive),> 53.8 µM (inactive),> 100 µM (inactive),> 100 µM (inactive),> 100 µM (inactive),> 80.4 µM (inactive),> 100 µM (inactive),> 100 µM (inactive),> 100 µM (inactive),> 100 µM (inactive),> 100 µM (inactive),> 100 µM (inactive),> 100 µM (inactive),> 100 µM (inactive),> 100 µM (inactive),77.4 µM (inactive),> 100 µM (inactive),> 100 µM (inactive),> 82 µM (inactive),> 100 µM (inactive)
BrC(/C=N/Nc1nnc(-c2ccccc2)c(-c2ccccc2)n1)C(Br)c1ccccc1 (stereo not drawn),29.3 µM (inactive),24.9 µM (inactive),33.2 µM (inactive),30.5 µM (inactive),–,22.4 µM (inactive),20.6 µM (inactive),34 µM (inactive),39.8 µM (inactive),32.9 µM (inactive),41.5 µM (inactive),36.1 µM (inactive),35.7 µM (inactive),21.9 µM (inactive),82.4 µM (inactive),64.4 µM (inactive),37.8 µM (inactive),19.7 µM (inactive),25.3 µM (inactive),38.5 µM (inactive)
